For 8 compounds, IC50 results are on record in ChEMBL document CHEMBL3886985, “Benzothiophene derivative” (2016).

One test deals with T1, cAMP and cAMP-inhibited cGMP 3',5'-cyclic phosphodiesterase 10A (Homo sapiens, UniProt Q9Y233). Kind of test: Activity Assay: A human acute lymphoblastic […] T cell line MOLT-4 (which can be purchased under ATCC No. CRL-1582 from ATCC) was cultured in an RPMI1640 medium containing 10% fetal bovine serum to obtain 5108 MOLT-4 cells. The cells were recovered by centrifugation and suspended in 10 ml of buffer solution A (25 mM Tris-HCl, 5 mM 2-mercaptoethanol, 2 mM benzamidine, 2 mM EDTA, and 0.1 mM 4-(2-aminoethyl)benzenesulfonyl hydrochloride, pH 7.5). The cells were homogenized using a Polytron homogenizer and centrifuged (4° C., 25,000 g, 10 minutes). Then, the supernatant was further ultracentrifuged (4° C., 100,000 g, 60 minutes). The obtained supernatant was filtered through a 0.2um filter to obtain a soluble fraction.HiTrap Q HP column (5 ml2, GE Healthcare Japan Corp.) equilibrated with buffer solution A was charged with the obtained soluble fraction. Phosphodiesterase was eluted with 300 ml of buffer solution A containing a linear gradient solution of 0 to 0.8 M NaCl to recover sixty 5-ml fractions. Each fraction was tested for cAMP-metabolizing phosphodiesterase activity. […] In order to confirm whether or not PDE10A mRNA was expressed in the MOLT-4 cells, total RNA was prepared from the MOLT-4 cells according to a standard method and analyzed by RT-PCR using PDE10A gene-specific primers (PDE10A sense primer: 5'-[…]-3' (SEQ ID NO: 1) and PDE10A antisense primer: 5'-[…]-3' (SEQ ID NO: 2)). As a result, PDE10A mRNA was detected from the total RNA of the MOLT-4 cells. On the other hand, total RNA was prepared from Jurkat cells, one type of human T cell, and similarly subjected to RT-PCR. As a result, PDE10A mRNA was rarely detected. An active peak centered around 250 mM NaCl was not observed in fractions obtained by the treatment of Jurkat cells in the same way as above. Eur J Biochem. 1999, 266 (3), 1118-2 has reported that PDE10A from the rat striatum and testis is eluted as an active peak centered around 250 mM NaCl. The test is classed as cell-based.
T1 sequence (Q9Y233 whole entry): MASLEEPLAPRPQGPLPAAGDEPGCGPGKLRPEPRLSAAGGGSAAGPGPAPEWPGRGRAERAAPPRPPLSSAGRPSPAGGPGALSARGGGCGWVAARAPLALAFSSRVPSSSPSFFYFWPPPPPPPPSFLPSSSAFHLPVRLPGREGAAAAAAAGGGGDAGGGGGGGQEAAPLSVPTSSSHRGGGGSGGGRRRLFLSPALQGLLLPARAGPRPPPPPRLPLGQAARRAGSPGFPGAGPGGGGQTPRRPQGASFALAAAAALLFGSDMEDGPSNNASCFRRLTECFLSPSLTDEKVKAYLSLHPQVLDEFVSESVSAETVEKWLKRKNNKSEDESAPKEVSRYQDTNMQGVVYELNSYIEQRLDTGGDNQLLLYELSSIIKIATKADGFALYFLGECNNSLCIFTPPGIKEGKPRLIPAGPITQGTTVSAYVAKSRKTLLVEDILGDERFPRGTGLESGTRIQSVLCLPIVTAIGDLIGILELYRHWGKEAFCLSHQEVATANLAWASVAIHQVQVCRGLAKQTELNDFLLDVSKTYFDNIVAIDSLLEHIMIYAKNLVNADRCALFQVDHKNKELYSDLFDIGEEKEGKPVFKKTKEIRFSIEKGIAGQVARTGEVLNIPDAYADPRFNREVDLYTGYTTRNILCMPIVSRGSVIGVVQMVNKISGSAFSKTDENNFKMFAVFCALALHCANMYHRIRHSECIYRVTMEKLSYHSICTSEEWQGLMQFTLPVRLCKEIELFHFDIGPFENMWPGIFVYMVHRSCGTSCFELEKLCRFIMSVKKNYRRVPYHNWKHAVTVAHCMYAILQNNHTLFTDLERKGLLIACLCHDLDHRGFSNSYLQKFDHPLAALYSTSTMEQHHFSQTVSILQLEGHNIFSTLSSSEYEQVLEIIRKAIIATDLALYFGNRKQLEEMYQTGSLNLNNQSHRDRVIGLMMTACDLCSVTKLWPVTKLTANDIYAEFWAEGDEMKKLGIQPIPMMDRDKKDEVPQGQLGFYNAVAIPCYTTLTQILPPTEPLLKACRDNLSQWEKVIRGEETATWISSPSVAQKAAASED
By IC50 is commonly meant the concentration needed to halve the response being measured. For the compound `COCc1ccc(C(C)=O)c2sc(C(=O)Nc3ccc4c(CN(C)C)cccc4n3)c(C)c12`, the IC50 was found to be 1.8 nM.

Consider `COCc1ccc(C(C)=O)c2sc(C(=O)Nc3ccc4c(COC(=O)CCC(=O)O)cccc4n3)c(C)c12`, for which 1 nM corresponded to half-maximal inhibition (IC50).

As to `COCc1ccc(C(C)=O)c2sc(C(=O)Nc3cc(N(C)C)c4ccccc4n3)c(C)c12`, the IC50 came out at 0.45 nM.

`COCc1ccc(C(C)=O)c2sc(C(=O)Nc3ccc4ccccc4n3)c(C)c12` yielded a concentration for half-maximal inhibition (IC50) of 1.1 nM.

Regarding `COCc1ccc(C(C)=O)c2sc(C(=O)Nc3ccc4c(CN5CCOCC5)cccc4n3)c(C)c12`, 1.3 nM corresponded to half-maximal inhibition (IC50).

With `COCc1ccc(C(C)=O)c2sc(C(=O)Nc3ccc4c(C(=O)N5CCN(C)CC5)cccc4n3)c(C)c12`, half-maximal inhibition (IC50) required 0.31 nM.

Compound `COCc1ccc(C(C)=O)c2sc(C(=O)Nc3ccc4c(CN5CC[C@@H](F)C5)cccc4n3)c(C)c12` returned an IC50 of 1.2 nM.

A further test deals with T1, cAMP and cAMP-inhibited cGMP 3',5'-cyclic phosphodiesterase 10A. Briefly: Activity Assay: Inhibitory activity-1 assay: To a solution containing 20 mM Tris-HCl (pH 7.5), 1 mM MgCl2, 100 μM EDTA, 330 μg/ml bovine serum albumin, 50 kU/ml 5′-nucleotidase, 0.1 μCi 3H-cAMP (64 nM cAMP), and PDE10A (H-PDE10A2, Human Phosphodiesterase 10A2, Scottish Biomedical), a test compound was added, and the mixture was reacted at 25° C. for 2 hours. To the reaction solution, QAE-Sephadex (17-0190-01, GE Healthcare Japan Corp.) suspended in 10 mM HEPES-Na (pH 7.0) (hereinafter, also referred to as a “QAE-Sephadex suspension”) was added, and the mixture was shaken for 1 minute and left standing for 5 minutes to obtain a supernatant. To the supernatant, a QAE-Sephadex suspension was further added, and the mixture was shaken for 1 minute and left standing for 5 minutes. Then, the obtained supernatant was transferred to LumaPlate (PerkinElmer, Inc.) and assayed using a radiation counter (TopCount NXT, PerkinElmer, Inc.).
Regarding `COCc1ccc(C(C)=O)c2sc(C(=O)Nc3ccc4c(COP(=O)(O)O)cccc4n3)c(C)c12`, the IC50 is 0.99 nM.
